Data published in PubChem BioAssay (NCI).
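1) Cells in 96-well plates. 2) Compound, 48 h, 5 concentrations. 3) Linear interpolation between surrounding doses. 4) Unreached endpoint = highest concentration. Definition used: TGI = concentration required for complete inhibition of growth.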

Legend:
Assay in all cases: growth of human tumour cells (NCI), 48 h
A498 renal = system: A498 renal
A549 NSCLC = system: A549 NSCLC
ACHN renal = system: ACHN renal
BT-549 breast = system: BT-549 breast
CAKI-1 renal = system: CAKI-1 renal
CCRF-CEM leukemia = system: CCRF-CEM leukemia
COLO 205 colon = system: COLO 205 colon
DU-145 prostate = system: DU-145 prostate
EKVX NSCLC = system: EKVX NSCLC
HCT-116 colon = system: HCT-116 colon
HCT-15 colon = system: HCT-15 colon
HL-60(TB) leukemia = system: HL-60(TB) leukemia
HT29 colon = system: HT29 colon
IGROV1 ovarian = system: IGROV1 ovarian
K-562 leukemia = system: K-562 leukemia
KM12 colon = system: KM12 colon
LOX IMVI melanoma = system: LOX IMVI melanoma
M14 melanoma = system: M14 melanoma
MALME-3M melanoma = system: MALME-3M melanoma
MCF7 breast = system: MCF7 breast
MDA-MB-231 breast = system: MDA-MB-231 breast
MDA-MB-435 = system: MDA-MB-435
MDA-N = system: MDA-N
MOLT-4 leukemia = system: MOLT-4 leukemia
NCI-H226 lung = system: NCI-H226 lung
NCI-H23 lung = system: NCI-H23 lung
NCI-H460 lung = system: NCI-H460 lung
NCI-H522 lung = system: NCI-H522 lung
NCI/ADR-RES ovarian = system: NCI/ADR-RES ovarian
OVCAR-3 ovarian = system: OVCAR-3 ovarian
OVCAR-4 ovarian = system: OVCAR-4 ovarian
OVCAR-5 ovarian = system: OVCAR-5 ovarian
OVCAR-8 ovarian = system: OVCAR-8 ovarian
PC-3 prostate = system: PC-3 prostate
RPMI-8226 leukemia = system: RPMI-8226 leukemia
RXF 393 renal = system: RXF 393 renal
SF-268 CNS = system: SF-268 CNS
SF-295 CNS = system: SF-295 CNS
SF-539 CNS = system: SF-539 CNS
SK-MEL-2 melanoma = system: SK-MEL-2 melanoma
SK-MEL-28 melanoma = system: SK-MEL-28 melanoma
SK-MEL-5 melanoma = system: SK-MEL-5 melanoma
SK-OV-3 ovarian = system: SK-OV-3 ovarian
SN12C renal = system: SN12C renal
SNB-19 CNS = system: SNB-19 CNS
SNB-75 CNS = system: SNB-75 CNS
SR leukemia = system: SR leukemia
SW-620 colon = system: SW-620 colon
TK-10 renal = system: TK-10 renal
U251 CNS = system: U251 CNS
UACC-257 melanoma = system: UACC-257 melanoma
UACC-62 melanoma = system: UACC-62 melanoma
UO-31 renal = system: UO-31 renal
786-0 renal = system: 786-0 renal
HCC-2998 colon = system: HCC-2998 colon
HOP-62 NSCLC = system: HOP-62 NSCLC
T-47D breast = system: T-47D breast
HS 578T breast = system: HS 578T breast

Cc1cccc2sc(-c3ccc(O)cc3)nc12
TGI (A498 renal): 20.4 µM
TGI (A549 NSCLC): 34.8 µM
TGI (ACHN renal): 33 µM
TGI (BT-549 breast): 25.2 µM
TGI (CAKI-1 renal): 30.5 µM
TGI (CCRF-CEM leukemia): 49.6 µM
TGI (COLO 205 colon): 28.1 µM
TGI (DU-145 prostate): 31.6 µM
TGI (EKVX NSCLC): 16.8 µM
TGI (HCT-116 colon): 28.9 µM
TGI (HCT-15 colon): 26 µM
TGI (HL-60(TB) leukemia): 40.8 µM
TGI (HT29 colon): 28.7 µM
TGI (IGROV1 ovarian): 29.2 µM
TGI (K-562 leukemia): > 100 µM
TGI (KM12 colon): 31.6 µM
TGI (LOX IMVI melanoma): 49.6 µM
TGI (M14 melanoma): 28.5 µM
TGI (MALME-3M melanoma): 32.8 µM
TGI (MCF7 breast): 26.9 µM
TGI (MDA-MB-231 breast): 38.7 µM
TGI (MDA-MB-435): 26.8 µM
TGI (MDA-N): 19.4 µM
TGI (MOLT-4 leukemia): > 100 µM
TGI (NCI-H226 lung): 34.6 µM
TGI (NCI-H23 lung): 31.9 µM
TGI (NCI-H460 lung): 33.3 µM
TGI (NCI-H522 lung): 31.7 µM
TGI (NCI/ADR-RES ovarian): 38.9 µM
TGI (OVCAR-3 ovarian): 29.8 µM
TGI (OVCAR-4 ovarian): 29.5 µM
TGI (OVCAR-5 ovarian): 30.2 µM
TGI (OVCAR-8 ovarian): 31.8 µM
TGI (PC-3 prostate): 31.7 µM
TGI (RPMI-8226 leukemia): 44.2 µM
TGI (RXF 393 renal): 32.1 µM
TGI (SF-268 CNS): 31.9 µM
TGI (SF-295 CNS): 29.1 µM
TGI (SF-539 CNS): 37.8 µM
TGI (SK-MEL-2 melanoma): 33.7 µM
TGI (SK-MEL-28 melanoma): 33.4 µM
TGI (SK-MEL-5 melanoma): 20.6 µM
TGI (SK-OV-3 ovarian): 35.4 µM
TGI (SN12C renal): 34.3 µM
TGI (SNB-19 CNS): 31.8 µM
TGI (SNB-75 CNS): 26.2 µM
TGI (SR leukemia): 47.3 µM
TGI (SW-620 colon): 23.7 µM
TGI (TK-10 renal): 42.1 µM
TGI (U251 CNS): 39.1 µM
TGI (UACC-257 melanoma): 33.1 µM
TGI (UACC-62 melanoma): 30.1 µM
TGI (UO-31 renal): 26.4 µM

C=CCc1c(O)c2nsnc2c2nsnc12
TGI (786-0 renal): > 10 µM
TGI (A549 NSCLC): > 10 µM
TGI (CAKI-1 renal): > 10 µM
TGI (CCRF-CEM leukemia): > 10 µM
TGI (COLO 205 colon): > 10 µM
TGI (DU-145 prostate): > 10 µM
TGI (EKVX NSCLC): > 10 µM
TGI (HCC-2998 colon): > 10 µM
TGI (HCT-15 colon): > 10 µM
TGI (HL-60(TB) leukemia): > 10 µM
TGI (HOP-62 NSCLC): > 10 µM
TGI (HT29 colon): > 10 µM
TGI (IGROV1 ovarian): > 10 µM
TGI (K-562 leukemia): > 10 µM
TGI (KM12 colon): > 10 µM
TGI (LOX IMVI melanoma): > 10 µM
TGI (M14 melanoma): > 10 µM
TGI (MALME-3M melanoma): > 10 µM
TGI (MCF7 breast): > 10 µM
TGI (MDA-MB-231 breast): > 10 µM
TGI (MDA-N): > 10 µM
TGI (MOLT-4 leukemia): > 10 µM
TGI (NCI-H23 lung): > 10 µM
TGI (OVCAR-8 ovarian): > 10 µM
TGI (PC-3 prostate): > 10 µM
TGI (RPMI-8226 leukemia): > 10 µM
TGI (RXF 393 renal): > 10 µM
TGI (SF-268 CNS): > 10 µM
TGI (SF-295 CNS): > 10 µM
TGI (SK-MEL-28 melanoma): > 10 µM
TGI (SK-MEL-5 melanoma): > 10 µM
TGI (SK-OV-3 ovarian): > 10 µM
TGI (SN12C renal): > 10 µM
TGI (SNB-75 CNS): > 10 µM
TGI (SR leukemia): > 10 µM
TGI (SW-620 colon): > 10 µM
TGI (T-47D breast): > 10 µM
TGI (TK-10 renal): > 10 µM
TGI (UACC-257 melanoma): > 10 µM
TGI (UACC-62 melanoma): > 10 µM

CCOC(=O)c1c(NC(=S)Nc2ccc(Cl)cc2)sc2c1CCN(C)C2
TGI (786-0 renal): > 100 µM
TGI (A498 renal): > 100 µM
TGI (A549 NSCLC): > 100 µM
TGI (ACHN renal): > 100 µM
TGI (BT-549 breast): > 100 µM
TGI (CAKI-1 renal): > 100 µM
TGI (CCRF-CEM leukemia): > 100 µM
TGI (COLO 205 colon): > 100 µM
TGI (DU-145 prostate): > 100 µM
TGI (EKVX NSCLC): > 100 µM
TGI (HCT-116 colon): > 100 µM
TGI (HCT-15 colon): > 100 µM
TGI (HL-60(TB) leukemia): > 100 µM
TGI (HOP-62 NSCLC): > 100 µM
TGI (HS 578T breast): > 100 µM
TGI (HT29 colon): > 100 µM
TGI (IGROV1 ovarian): > 100 µM
TGI (K-562 leukemia): > 100 µM
TGI (KM12 colon): > 100 µM
TGI (M14 melanoma): > 100 µM
TGI (MCF7 breast): > 100 µM
TGI (MDA-MB-231 breast): > 100 µM
TGI (MDA-N): > 100 µM
TGI (MOLT-4 leukemia): > 100 µM
TGI (NCI-H226 lung): > 100 µM
TGI (NCI-H23 lung): > 100 µM
TGI (NCI-H460 lung): > 100 µM
TGI (NCI/ADR-RES ovarian): > 100 µM
TGI (OVCAR-3 ovarian): > 100 µM
TGI (OVCAR-5 ovarian): > 100 µM
TGI (OVCAR-8 ovarian): > 100 µM
TGI (PC-3 prostate): > 100 µM
TGI (RPMI-8226 leukemia): > 100 µM
TGI (RXF 393 renal): > 100 µM
TGI (SF-268 CNS): > 100 µM
TGI (SF-295 CNS): > 100 µM
TGI (SF-539 CNS): > 100 µM
TGI (SK-MEL-2 melanoma): > 100 µM
TGI (SK-MEL-5 melanoma): > 100 µM
TGI (SN12C renal): > 100 µM
TGI (SNB-19 CNS): > 100 µM
TGI (T-47D breast): > 100 µM
TGI (TK-10 renal): > 100 µM
TGI (UACC-257 melanoma): > 100 µM
TGI (UACC-62 melanoma): > 100 µM
TGI (UO-31 renal): > 100 µM
